The results in this text go back to patent publication US20220290114A1 (priority 2019, published 2022).

Where two headings read alike, the source gives them in different places.

Series [1] relates to C. perfringens reference strains (NCTC 2837, 8237, 8238, 8239). In kind it is cell-based, Clostridium perfringens.
Series [2] deals with Clostridium leptum (DSMZ 753). The series is described as follows: Spot assay of clarified lysates on non-Cp species. It counts as cell-based. On the set-up: key: The presence of antimicrobial activity is denoted by a ‘+’; the lack of antimicrobial activity is denoted by a ‘−’.
In series [3] the test system is C. perfringens reference strains (NCTC 2837, 8235, 8237, 8238, 8239, 8359, 8678, 10578). In kind it is cell-based, Clostridium perfringens. The conditions noted are these: for effect on C. perfringens growth in spot assay: 10 μg/ml chloramphenicol, 20 μg/ml spectinomycin, 1 mg/mL lysozyme, 1 mg/mL disodium EDTA; for effect in spot assay: NCTC 8237, FIG. 4, freshly-plated cells and cell lawns.

Series [4] concerns C. perfringens NCTC reference strains and APHA field isolates. It counts as cell-based, Clostridium perfringens. On the set-up: key to bacteriolytic activity, cell lawn: (−) indicates no visible lysis; +/−, +, ++, +++ correspond to increasingly clear lysis halos around the paper disks; +/−, +, ++, +++ correspond to increasingly clear lysis halos around the paper disks; +/−, +, ++, +++ correspond to increasingly clear lysis halos around the paper disks; +/−, +, ++, +++ correspond to increasingly clear lysis halos around the paper disks.

Series [5] concerns Clostridium cellobioparum (DSMZ 1351). The series is described as follows: Spot assay of clarified lysates on non-Cp species. It counts as cell-based. Set-up: key: The presence of antimicrobial activity is denoted by a ‘+’; the lack of antimicrobial activity is denoted by a ‘−’.
In series [6] the test system is C. perfringens strain Cp6. In kind it is cell-based, Clostridium perfringens.
The subject of series [7] is Bifidobacterium adolescentis (DSMZ 20083). In words: Spot assay of clarified lysates on non-Cp species. On the set-up: key: The presence of antimicrobial activity is denoted by a ‘+’; the lack of antimicrobial activity is denoted by a ‘−’. It counts as cell-based.
In series [8] the test system is Clostridium colinum (DSMZ 6011). The series is described as follows: Spot assay of clarified lysates on non-Cp species. On the set-up: key: The presence of antimicrobial activity is denoted by a ‘+’; the lack of antimicrobial activity is denoted by a ‘−’. It counts as cell-based.
Another series has as its system C. perfringens Cp6 PGN. It counts as biochemical, Clostridium perfringens. The following applies: 54D extract, 3× replicates, fresh PGN stock.
Setting [9] is: NCTC 2837, FP (freshly-plated cells).

For “Lysozyme: Chicken hen egg white lysozyme, reference enzybiotic”, the “bacteriolytic activity in turbidity reduction assay” value in series [1] is on record as “minimal bacteriolytic activities”. Moreover, the “antimicrobial activity in spot assay (clearance zone)” value (“antimicrobial activity in spot assay” for short) in series [2] is “−”; in [3] (NCTC 2837, CL (cell lawn)) it was “−”; in [3] (setting [9]), “−”; in [3] (NCTC 8235, CL), “−”; in [3] (NCTC 8235, FP), “−”; in [3] (NCTC 8237, CL), “−”. For the same molecule, the “antimicrobial activity in spot assay” value in series [3] (NCTC 8237, FP) is listed as “−”; in series [3] (NCTC 8238, CL) it was “−”; in series [3] (NCTC 8238, FP), “−”; in series [3] (NCTC 8239, CL), “−”; in series [3] (NCTC 8239, FP) it was “−”; in [3] (NCTC 8359, CL) it was “−”. Also, the “antimicrobial activity in spot assay” value in series [3] (NCTC 8359, FP) was “+”; in [3] (NCTC 8678, CL), “−”; in series [3] (NCTC 8678, FP), “−”; in series [3] (NCTC 10578, CL), “−”; in [3] (NCTC 10578, FP), “−”; in [5] it was “−”. The “antimicrobial activity in spot assay” value in series [7] (DSMZ 20083, CL) is recorded as “−”; in series [7] (DSMZ 20083, FP), “−”; in series [8], “−”. In series [3], the “effect on C. perfringens growth in spot assay” value (“effect on C. perfringens growth” for short) was “no effect”. Further, the “bacteriolytic activity, cell lawn” value is “−” in [4] (APHA B00907, 50 μg/ml); “−” in series [4] (APHA B00917, 50 μg/ml); “−” in [4] (APHA B00954, 50 μg/ml); “−” in series [4] (APHA B00964, 50 μg/ml); “−” in [4] (APHA B00976, 50 μg/ml); “−” in series [4] (APHA G00033, 50 μg/ml). Moreover, the “bacteriolytic activity, cell lawn” value is recorded as “−” in series [4] (APHA W100102, 50 μg/ml); “−” in series [4] (NCTC 2837, 50 μg/ml); “−” in [4] (NCTC 8237, 50 μg/ml); “−” in series [4] (NCTC 8238, 50 μg/ml); “−” in series [4] (NCTC 8239, 50 μg/ml). The “growth inhibition, freshly plated cells” value is reported as “−” in series [4] (APHA B00907, 50 μg/ml); “−” in series [4] (APHA B00917, 50 μg/ml); “−” in series [4] (APHA B00954, 50 μg/ml); “−” in [4] (APHA B00964, 50 μg/ml); “−” in series [4] (APHA B00976, 50 μg/ml); “−” in series [4] (APHA G00033, 50 μg/ml). Besides, the “growth inhibition, freshly plated cells” value in series [4] (APHA W100102, 50 μg/ml) is reported as “−”; in series [4] (NCTC 2837, 50 μg/ml), “−”; in [4] (NCTC 8237, 50 μg/ml) it was “−”; in [4] (NCTC 8238, 50 μg/ml), “−”; in series [4] (NCTC 8239, 50 μg/ml), “−”. Also, the MBC in series [6] (Cp6, molar basis) is more than 174 µM; in series [6] (Cp6, ~2.1E4 cells/mL) it was more than 2500 µg/mL. In addition, the MIC in series [6] (Cp6, molar basis) was more than 174 µM; in series [6] (Cp6, ~2.1E4 cells/mL, overnight at 41° C.), more than 2500 µg/mL. Also, the “lysozyme loading not able to inhibit overnight growth” value in series [6] (Cp6, ~2.1E4 cells/mL) is reported as more than 2.5 mg/mL.

Take `CC1(C)S[C@@H]2[C@H](NC(=O)[C@H](N)c3ccccc3)C(=O)N2[C@H]1C(=O)O` [Ampicillin]: the “antimicrobial activity in spot assay” value in series [2] (DSMZ 753, CL) is given as “−”; in [3] (NCTC 2837, CL (cell lawn)), “−”; in series [3] (setting [9]) it was “+”; in series [3] (NCTC 8235, CL), “−”; in series [3] (NCTC 8235, FP) it was “+”; in series [3] (NCTC 8237, CL), “−”. The “antimicrobial activity in spot assay” value in series [3] (NCTC 8237, FP) is given as “+”; in [3] (NCTC 8238, CL) it was “−”; in series [3] (NCTC 8238, FP) it was “+”; in series [3] (NCTC 8239, CL), “−”; in series [3] (NCTC 8239, FP) it was “+”; in series [3] (NCTC 8359, CL), “−”. For the same molecule, the “antimicrobial activity in spot assay” value in series [3] (NCTC 8359, FP) is recorded as “+”; in series [3] (NCTC 8678, CL), “−”; in series [3] (NCTC 8678, FP), “+”; in series [3] (NCTC 10578, CL), “−”; in series [3] (NCTC 10578, FP) it was “+”; in series [5] (DSMZ 1351, CL) it was “−”. For the same molecule, the “antimicrobial activity in spot assay” value in [5] (DSMZ 1351, FP) is “+”; in series [7] (DSMZ 20083, CL) it was “−”; in [7] (DSMZ 20083, FP), “+”; in series [8] (DSMZ 6011, CL) it was “−”; in series [8] (DSMZ 6011, FP), “−”.

Take `O=C(N[C@H](CO)[C@H](O)c1ccc([N+](=O)[O-])cc1)C(Cl)Cl` [Chloramphenicol]: in series [3], the “effect on C. perfringens growth” value was “no effect” and the “effect in spot assay” value is listed as “no effect”.

Turning to `NC[C@H]1O[C@H](O[C@H]2[C@H](O)[C@@H](O[C@H]3O[C@H](CO)[C@@H](O)[C@H](N)[C@H]3O)[C@H](N)C[C@@H]2N)[C@H](O)[C@@H](O)[C@@H]1O` [kanamycin], the “effect in spot assay” value in [3] was “no effect”.

In the case of `CN[C@@H]1[C@H](O)[C@H](NC)[C@H]2O[C@@]3(O)C(=O)C[C@@H](C)O[C@H]3O[C@@H]2[C@H]1O` [spectinomycin], in series [3], the “effect on C. perfringens growth” value is given as “no effect” and the “effect in spot assay” value is recorded as “no effect”.

For `O=C([O-])CN(CCN(CC(=O)[O-])CC(=O)O)CC(=O)O.[Na+].[Na+]` [disodium EDTA], the “effect on C. perfringens growth” value in series [3] is recorded as “no effect”. In addition, in series [3] (10 mM EDTA, screening set 2), the “effect on freshly-plated cells in spot assay” value is recorded as “inhibitory effect”.

B1: AMI3CPF4969: endolysin sequence, SEQ ID NO: 11 (protein)
chain: QSRSDSNFKGIDISNWQKGINLNQLKERGYDVCYIKITEGKGYVDPCFEENYNKAIAAGMKVGVYHYWRGTSSAIEQANNIVRTLGNKHIDCKIAIDVEQTDGLSYGELNNSVLQLAEELERLIGAEVCIYCNTNYARNVLDSRLGKYSLWVAHYGVNKPGDNPIWDKWAGFQYSENGTSNVNGSLDLDEFTEEIFINKESSKVTENKLFSTNARALVALDPRDNPSDNYNDLGEIYEGERIQVLAEVCDKEDYLPVKYWKDSEGRESGKVWIRSKQDYMMIDTYHRVFNVITQLDARYEPSSDSATMGYVKNGERLYVHRTEGNYSLCTYFAGNGYKTAWFTAKYLER
modifications: AMI3CPF4969
In the case of B1, the “fold enhancement of PGN degradation activity in 54D algal extract vs PBS, pH 7.0” value with C. perfringens Cp6 PGN is not above 44 fold.

As usually defined, the MBC is the smallest concentration meeting the test's criterion for killing. What is called MIC is the lowest concentration found to suppress growth.
